Data published in ChEMBL document CHEMBL1938340, “DNA-instructed acyl transfer reactions for the synthesis of bioactive peptides” (Bioorg Med Chem Lett, 2011).
Activity calls are given as the source filed them. No cut-off for these calls is given here. Peptide text beside a SMILES is read from it.

How the values were obtained:
[1] = molecular target: T1, E3 ubiquitin-protein ligase XIAP (Homo sapiens, UniProt P98170); test: Displacement of fluorescent H-Abu-Arg-Pro-Phe-Lys-NH-FAM-NH2 peptide from XIAP BIR3 domain by fluorescence polarization assay
T1 sequence (P98170 whole entry, the tested form may be a part): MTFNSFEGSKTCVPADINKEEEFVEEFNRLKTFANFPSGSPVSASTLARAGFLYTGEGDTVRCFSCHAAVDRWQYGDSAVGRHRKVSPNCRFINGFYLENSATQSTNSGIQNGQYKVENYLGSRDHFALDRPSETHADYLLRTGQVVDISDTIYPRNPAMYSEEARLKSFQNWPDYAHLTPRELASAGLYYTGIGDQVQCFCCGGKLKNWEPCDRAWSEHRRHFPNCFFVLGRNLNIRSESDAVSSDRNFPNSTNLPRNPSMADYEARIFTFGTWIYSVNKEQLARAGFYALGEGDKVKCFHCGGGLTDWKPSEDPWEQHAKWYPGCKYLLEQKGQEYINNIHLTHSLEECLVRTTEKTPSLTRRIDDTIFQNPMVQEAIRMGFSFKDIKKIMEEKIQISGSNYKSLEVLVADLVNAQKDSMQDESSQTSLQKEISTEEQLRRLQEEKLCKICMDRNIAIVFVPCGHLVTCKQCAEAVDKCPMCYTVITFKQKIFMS

[2] = molecular target: T1, E3 ubiquitin-protein ligase XIAP; test: Inhibition of XIAP in HEK293 cell lysate assessed as release of caspase-3 from BIR3 measuring formation of fluorescent AFC from DEVD-AFC by fluorimetry; assay type: cell-free
[3] = molecular target: T1, E3 ubiquitin-protein ligase XIAP; test: Inhibition of XIAP in HEK293 cell lysate assessed as release of caspase-9 from BIR3 measuring formation of fluorescent AFC from LEHD-AFC by fluorimetry; assay type: cell-free

SMILES | Activity [1] | inhibition [2] | inhibition [3] | IC50 [1]
CC(=O)NCCN(CC(=O)NCCN(CC(=O)NCCN(CC(=O)NCCN(CC(=O)NCCN(CC(=O)NCCN(CC(=O)NCCN(CC(=O)NCCN(CC(=O)N[C@@H](CCCCNC(=O)CCSC(=O)[C@H](C)N)C(N)=O)C(=O)Cn1ccc(N)nc1=O)C(=O)Cn1cnc2c(N)ncnc21)C(=O)Cn1ccc(N)nc1=O)C(=O)Cn1ccc(N)nc1=O)C(=O)Cn1ccc(N)nc1=O)C(=O)Cn1ccc(N)nc1=O)C(=O)Cn1cc(C)c(=O)[nH]c1=O)C(=O)Cn1cc(C)c(=O)[nH]c1=O | inactive |  |  | 
CC[C@H](C)[C@H](NC(=O)[C@@H]1CCCN1C(=O)[C@@H](N)CS)C(=O)NCCOCCOCC(=O)NCCN(CC(=O)NCCN(CC(=O)NCCN(CC(=O)NCCN(CC(=O)NCCN(CC(=O)NCCN(CC(=O)NCCN(CC(=O)NCC(N)=O)C(=O)Cn1cnc2c(=O)[nH]c(N)nc21)C(=O)Cn1cnc2c(N)ncnc21)C(=O)Cn1ccc(N)nc1=O)C(=O)Cn1cnc2c(N)ncnc21)C(=O)Cn1cc(C)c(=O)[nH]c1=O)C(=O)Cn1ccc(N)nc1=O)C(=O)Cn1ccc(N)nc1=O | inactive |  |  | 
CC[C@H](C)[C@H](NC(=O)[C@@H]1CCCN1C(=O)[C@H](CS)NC(=O)[C@H](C)N)C(=O)NCCOCCOCC(=O)NCCN(CC(=O)NCCN(CC(=O)NCCN(CC(=O)NCCN(CC(=O)NCCN(CC(=O)NCCN(CC(=O)NCCN(CC(=O)NCC(N)=O)C(=O)Cn1cnc2c(=O)[nH]c(N)nc21)C(=O)Cn1cnc2c(N)ncnc21)C(=O)Cn1ccc(N)nc1=O)C(=O)Cn1cnc2c(N)ncnc21)C(=O)Cn1cc(C)c(=O)[nH]c1=O)C(=O)Cn1ccc(N)nc1=O)C(=O)Cn1ccc(N)nc1=O |  | Dose-dependent effect | Dose-dependent effect | 560 nM
CC[C@H](C)[C@H](NC(=O)[C@@H]1CCCN1C(=O)[C@@H](N)CS)C(=O)N[C@@H](C)C(=O)N[C@@H](CCC(N)=O)C(=O)N[C@@H](CCCCN)C(=O)NCCN(CC(=O)NCCN(CC(=O)NCCN(CC(=O)NCCN(CC(=O)NCCN(CC(=O)NCCN(CC(=O)NCCN(CC(=O)NCC(N)=O)C(=O)Cn1cnc2c(=O)[nH]c(N)nc21)C(=O)Cn1cnc2c(N)ncnc21)C(=O)Cn1ccc(N)nc1=O)C(=O)Cn1cnc2c(N)ncnc21)C(=O)Cn1cc(C)c(=O)[nH]c1=O)C(=O)Cn1ccc(N)nc1=O)C(=O)Cn1ccc(N)nc1=O | inactive |  |  | 
CC[C@H](C)[C@H](NC(=O)[C@@H]1CCCN1C(=O)[C@H](CS)NC(=O)[C@H](C)N)C(=O)N[C@@H](C)C(=O)N[C@@H](CCC(N)=O)C(=O)N[C@@H](CCCCN)C(=O)NCCN(CC(=O)NCCN(CC(=O)NCCN(CC(=O)NCCN(CC(=O)NCCN(CC(=O)NCCN(CC(=O)NCCN(CC(=O)NCC(N)=O)C(=O)Cn1cnc2c(=O)[nH]c(N)nc21)C(=O)Cn1cnc2c(N)ncnc21)C(=O)Cn1ccc(N)nc1=O)C(=O)Cn1cnc2c(N)ncnc21)C(=O)Cn1cc(C)c(=O)[nH]c1=O)C(=O)Cn1ccc(N)nc1=O)C(=O)Cn1ccc(N)nc1=O |  | Dose-dependent effect | Dose-dependent effect | 1520 nM
CC[C@H](C)[C@H](NC(=O)[C@@H]1CCCN1C(=O)[C@H](CS)NC(=O)[C@H](C)N)C(=O)O (H-ACPI-OH) |  |  |  | 650 nM
